Data as given in patent US7999137B2, “Pesticide bi-phenyl-amidine derivatives” (Bayer Cropscience AG, priority 2006, dated 2011).

Experiments:
[1] = logP by HPLC on reversed-phase column (C 18), EEC Directive 79/831 Annex V.A8; type: physicochemical; conditions: HPLC reversed-phase C 18; 40° C.; 0.1% aqueous formic acid and acetonitrile, linear gradient 10% to 90% acetonitrile
Method: Temperature: 40° C.; Mobile phases: 0.1% aqueous formic acid and acetonitrile; linear gradient from 10% acetonitrile to 90% acetonitrile.
Calibration was carried out using unbranched alkan-2-ones (comprising 3 to 16 carbon atoms) with known logP values (determination of the logP values by the retention times using linear interpolation between two successive alkanones).

[2] = test system: Aedes aegypti larvae; assay: In vivo protective test on Aedes aegypti (AEDSAE U), larvae mortality; conditions: concentration and time not stated
Method: In Vivo Protective Test on Aedes Aegypti (AEDSAE U)
To produce a suitable preparation of the active compound, the active compound is mixed with the stated amount of solvent, and the concentrate is diluted with staining water to the desired concentration.
Aedes aegypti larvae are pipetted with a preparation of active ingredient of the desired concentration.
After the specified period of time, mortality in % is determined. 100% means that all larvae have been killed, a 0% means that none of the larvae have been killed.

[3] = test system: Heliotis virescens; assay: Test on Heliotis virescens (HELIVI spray application), egg mortality on soybean leaf sections; type: in vivo; conditions: eggs on sprayed soybean leaf sections; concentration and time not stated
Source text: Heliotis virescens—Test on Heliotis virescens (HELIVI Spray Application)
To produce a suitable preparation of the active compound, 1 part by weight of active compound is mixed with the stated amount of solvent and emulsifier, and the concentrate is dilutes with emulsifier-containing water to the desired concentration.
Soybean (Glycine max.) leaf sections are sprayed with a preparation of the active ingredient of the desired concentration. Once dry, the leaf sections are infested with eggs of cotton bollworm (Heliotis virescens).
After the specified period of time, mortality in % is determined. 100% means that all eggs have been killed and 0% means that none of the eggs have been killed.

log p (HCOOH) [1]	SMILES	activity (mortality of larvae) [2]	activity (mortality of eggs) [3]
2.04	CC(C)N(C)C=Nc1ccc(-c2cccc(Cl)c2)c(Cl)c1 [Compound 101]		
2.28	CCN(C)C=Nc1cc(C)c(-c2ccc(OC(C)(C)C)cc2)cc1C [Compound 160]		
2.55	CCN(C)C=Nc1cc(C)c(-c2ccc(OCc3ccccc3)cc2)cc1C [Compound 48]		
2.01	CCN(C)C=Nc1ccc(-c2ccc(C=NOC)cc2)cc1C(F)(F)F [Compound 76]		
2.37	CCN(C)C=Nc1cc(C)c(-c2ccc(OC(C)C)c(F)c2)cc1C [Compound 172]		
2.42	CCN(C)C=Nc1cc(C)c(-c2cccc(C(C)C)c2)cc1C [Compound 178]		
2.27	CCN(C)C=Nc1cc(C)c(-c2ccc(Cl)c(C)c2)cc1C [Compound 109]		
1.84	CCN(C)C=Nc1ccc(-c2ccc(F)cc2)cc1C [Compound 126]		
2.77	Cc1cc(-c2ccc(C(C)(C)C)cc2)c(C)cc1N=CN(C)C(C)C [Compound 161]		
2.46	CCN(C)C=Nc1ccc(-c2ccc(OCc3ccccc3)cc2)cc1C [Compound 36]		
2.39	CCc1cc(-c2ccc(Cl)c(C(F)(F)F)c2)ccc1N=CN(C)CC [Compound 21]		
2.19	CCN(C)C=Nc1cc(C)c(-c2ccc(C(F)(F)F)cc2)cc1C [Compound 132]		
1.68	CCN(C)C=Nc1ccc(-c2ccc(F)c(F)c2)cc1F [Compound 84]		
1.79	CCN(C)C=Nc1ccc(-c2cc(OC)c(OC)c(OC)c2)cc1C(F)(F)F [Compound 75]		
3.08	C=CCN(C)C=Nc1cc(C)c(-c2ccc([Si](C)(C)C)cc2)cc1C [Compound 153]		
1.93	CCN(C)C=Nc1ccc(-c2ccc(F)cc2)cc1C(F)(F)F [Compound 14]		
2.29	CCN(C)C=Nc1ccc(-c2ccc(C(C)(C)C)cc2)cc1F [Compound 6]		
2.23	CCN(C)C=Nc1ccc(-c2ccc(Cl)cc2C)cc1C [Compound 111]		

log p (HCOOH) [1]	SMILES	activity (mortality of larvae) [2]	activity (mortality of eggs) [3]
1.54	CCN(C)C=Nc1ccc(-c2ccc(C#N)cc2)cc1C [Compound 130]		
2.41	CCN(C)C=Nc1ccc(-c2ccc(Oc3ccccc3)cc2)cc1C [Compound 35]		
1.76	CCN(C)C=Nc1ccc(-c2ccc(COC)cc2)cc1C(F)(F)F [Compound 93]		
2.29	CCN(C)C=Nc1ccc(-c2ccc(F)c(F)c2F)cc1C(F)(F)F [Compound 79]		
2.39	CCN(C)C=Nc1ccc(-c2ccc(Cl)cc2Cl)cc1C(F)(F)F [Compound 85]		
2.13	CCN(C)C=Nc1cc(C)c(-c2cccc3ccccc23)cc1C [Compound 135]		
1.86	CCN(C)C=Nc1ccc(-c2ccc(OC)c(C)c2)cc1Cl [Compound 115]		
1.83	CCN(C)C=Nc1ccc(-c2ccc(F)c(F)c2)cc1Cl [Compound 68]		
2.74	Cc1cc(-c2ccc(C(C)(C)C)c(F)c2)c(C)cc1N=CN(C)C(C)C [Compound 169]		
2.21	CCN(C)C=Nc1ccc(-c2ccc(Cl)c(Cl)c2)cc1C [Compound 32]		
3.00	CCN(C)C=Nc1cc(C)c(-c2cccc([Si](C)(C)C)c2)cc1C [Compound 179]		
2.02	CCN(C)C=Nc1ccc(-c2ccc(C(C)=NOC)cc2)cc1C [Compound 31]		
2.20	CCN(C)C=Nc1ccc(-c2ccc(F)c(C)c2)cc1C(F)(F)F [Compound 82]		
1.89	CCN(C)C=Nc1cc(OC)c(-c2ccc(C)cc2)cc1OC [Compound 98]		
2.26	CCc1cc(-c2ccc(Cl)cc2Cl)ccc1N=CN(C)CC [Compound 57]		
2.71	CCN(C)C=Nc1cc(C)c(-c2ccc(C(C)(C)C)cc2)cc1Cl [Compound 106]		
1.58	CCN(C)C=Nc1ccc(-c2cc(OC)c(OC)c(OC)c2)cc1Cl [Compound 63]		

SMILES	log p (HCOOH) [1]	activity (mortality of larvae) [2]	activity (mortality of eggs) [3]
CCN(C)C=Nc1ccc(-c2ccc(C(F)(F)F)cc2)cc1F [Compound 26]	1.87	good activity	good activity
CCN(C)C=Nc1ccc(-c2ccc(Cl)c(C(F)(F)F)c2)cc1Cl [Compound 18]	2.19	good activity	
Cc1cc(-c2ccc(Cl)cc2)c(F)cc1N=CN(C)C(C)C [Compound 104]	2.22	good activity	
CCN(C)C=Nc1ccc(-c2ccc(OC(F)(F)F)cc2)c(Cl)c1 [Compound 100]	2.15	good activity	
CCN(C)C=Nc1ccc(-c2ccc(C(C)(C)C)cc2)cc1C [Compound 129]	2.67	good activity	
CC(C)N(C)C=Nc1ccc(-c2ccc(OC(F)(F)F)cc2)c(Cl)c1 [Compound 105]	2.42	good activity	
CCN(C)C=Nc1ccc(-c2ccc(F)c(Cl)c2)cc1F [Compound 9]	1.78	good activity	
CCN(C)C=Nc1cc(F)c(-c2ccc(Cl)cc2)cc1C [Compound 99]	2.23	good activity	
CCN(C)C=Nc1ccc(-c2ccc(C=NOC)cc2)cc1F [Compound 77]	1.73	good activity	
CCN(C)C=Nc1ccc(-c2ccc(Cl)c(C(F)(F)F)c2)cc1C(F)(F)F [Compound 19]	2.90	good activity	
CCN(C)C=Nc1cc(C)c(-c2ccc(Oc3ccccc3)cc2)cc1C [Compound 47]	2.56	good activity	
CCN(C)C=Nc1ccc(-c2ccc(C(F)(F)F)cc2)cc1C [Compound 127]	2.17	good activity	
CCc1cc(-c2ccc(Cl)c(Cl)c2)ccc1N=CN(C)CC [Compound 54]	2.37	good activity	
CCN(C)C=Nc1ccc(-c2cccc(Cl)c2)cc1C [Compound 128]	2.01	good activity	
